Reference: patent US20260102387A1, “IMMUNOSUPPRESSIVE COMPOUNDS” (UNIVERSITÄT BASEL, priority 2022, published 2026)
Entries after “also recorded” stand apart in the source; their conditions may differ.

What was measured:
[1] = system: coronin 1 promoter; experiment: Fluorescence-based screening assay: coronin 1 promoter driven GFP in RBL cells (microplate reader / microscopy); format: cell-based; settings: 48 h
Method: The murine coronin 1 promoter sequences of SEQ ID NO: 1-6 were each cloned into a plasmid lacking a promoter (promoterless) but containing a destabilized Green Fluorescence Protein (GFP) cassette. Rat Basophil Leukemia (RBL) cells were transfected with the plasmids, stable GFP expressing cells were enriched, incubated with various compounds and assessed for coronin 1 promoter inhibition by assessing green fluorescence values (FIG. 2).
The plasmids were independently transfected into immune cells (Rat basophil Leukemia, RBL cells) to generate green and red fluorescent RBL cells that were subsequently enriched by means of flow cytometry. These cells were then mixed in equal ratio (1:1) and incubated in a 96 well plate at 100,000 cells/well in a volume of 200 μl of phenol red free RPMI supplemented with 8% fetal calf serum, L-glutamate and antibiotics (penicillin, […]) from available chemical libraries. At defined time points (8 h, 24 h and 48 h), the GFP and RFP fluorescence was measured using a 96 well microplate reader (Synergy, BioTek Instruments). […] Selected compounds show different levels of modulation of coronin 1 promoter driven GFP and CMV promoter driven RFP fluorescence. GFP and RFP fluorescence were analyzed with a microplate reader upon incubation with the top coronin 1 promoter inhibiting compounds. Shown are percentage of GFP reduction (left column) and percentage of RFP reduction (right column) for the compounds at 5 μg/ml concentration at 48 h. Cycloheximide (CHX) serves as positive control whereas media and DMSO serve as negative controls. […] Cells were imaged using a fluorescence microscope to validate fluorescence inhibition (FIG. 3A) and as well assess morphology and viability (in addition to GFP down regulation confirmation). In addition, quantitative Polymerase Chain Reaction (qPCR) for coronin 1 mRNA transcripts reveal reduction with compound 11 (FIG. 3B). The primers used for the qPCR on RBL cells are listed below as follows;

[2] = system: coronin 1 promoter; experiment: EC50 analysis for coronin 1 promoter driven GFP inhibition by flow cytometry in RBL cells; format: cell-based; settings: RBL, RBL cells, 48-65 h, flow cytometry
Procedure, shortened: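 RBL cells carrying coronin 1 promoter–GFP, mixed with CMV promoter–RFP cells, exposed to compounds 48–65 h and analyzed by flow cytometry with live/dead staining. EC50 derived from GFP inhibition, with RFP and viability as nonspecific and toxicity counter-reads; cycloheximide and DMSO as controls, relative potency normalized to a reference compound.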

[3] = system: RBL cells; experiment: Cell viability by live-dead staining (cytotoxicity), flow cytometry; format: cell-based, Rat; settings: Rattus norvegicus, RBL, cell viability via live/dead staining, 48-65 h, read-out: EC50 Toxicity
Procedure, shortened: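 RBL cells with coronin 1 promoter-GFP, mixed 1:1 with CMV promoter-RFP RBL cells, exposed to compound 48-65 h. Flow cytometry read RFP fluorescence for non-specific promoter inhibition and live-dead staining for cytotoxicity. EC50 values derived; cycloheximide positive control, DMSO negative.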

[4] = system: coronin 1; experiment: Western blotting of coronin 1 protein levels in RBL cells; format: cell-based, Rat; settings: RBL cell lines, chemiluminescence imager
Method: buffer with 0.2% SDS containing protease and phosphatase inhibitors (Roche) at 4° C., followed by protein determination (BCA, Pierce) and SDS-PAGE with equal protein amounts transferred onto nitrocellulose and probed using antibodies against the indicated proteins (actin and coronin 1) followed by HRP-labeled secondary antibodies and developed using an enhanced chemi-luminescence imager (Fuji) (FIG. 3C).

[5] = system: RBL cells; experiment: In vitro toxicity, Alamar blue assay; format: cell-based, Rat
Method: In vitro cytotoxicity tests were performed using Alamar blue (Invitrogen, USA) following manufacturers protocol. In brief, RBL cells pretreated with coronin 1 expression inhibitor or vehicle controls were reseeded and cultured in a 96-well plate at a concentration of 1×10^4 cells/ml of culture media. Alamar blue was added to the wells and further incubated at 37° C. for 4 h. The absorbance was measured at 600 nm using a microplate reader (Synergy, BioTek Instruments). DMSO and cycloheximide served as the vehicle and positive control respectively (FIG. 5A).

Question: What does the source list for `COC(=O)C1=C(C)NC2=C(C(=O)CC(c3ccccc3OC)C2)C1c1cccc(O)c1` (stereo not drawn) [Comp. 11, methyl-4-(3-hydroxyphenyl)-7-(2-methoxyphenyl)-2-methyl-5-oxo-1,4,5,6,7,8-hexahydro-3-quinolinecarboxylate]?
Answer: coronin 1 promoter driven GFP, imaged by microscope ([1]; 10 μg/ml, confocal microscope): selectively reduce GFP values; also recorded: selective reduction; activity at 5 µg/mL ([1]; RBL, 5 μg/ml, microplate reader, DMSO = 100, read-out: GFP values (%)): 35%; EC50 [2]: 1.2 µM; EC50 [3]: > 9 µM; coronin 1 depletion (Western blotting, protein level) [4]: ~80%; in vitro toxicity by Alamar blue assay [5]: minimal toxicity
